Measured values from ChEMBL document CHEMBL5346891, “Overview of the development of HBV small molecule inhibitors” (Eur J Med Chem, 2023).
One block for each compound: values may come before it.

What was measured:
Hepatitis B virus [1] = experiment: Antiviral activity against HBV infected in human HepDES19 cells assessed as reduction in cccDNA accumulation by southern blot analysis; assay type: functional, organism-based
Hepatitis B virus [2] = experiment: Antiviral activity against HBV infected in human Primary hepatocyte cells assessed as reduction in HBeAg level; assay type: functional, organism-based
Hepatitis B virus [3] = experiment: Antiviral activity against HBV infected in human HepG2.2.15 cells assessed as reduction in viral DNA level; assay type: functional, organism-based
Hepatitis B virus [4] = experiment: Antiviral activity against HBV infected in human Primary hepatocyte cells assessed as reduction in HBsAg level; assay type: functional, organism-based
Hepatitis B virus [5] = experiment: Antiviral activity against HBV infected in human HepG2-hNTCP cells assessed as reduction in HBeAg level; assay type: functional, organism-based
Hepatitis B virus [6] = experiment: Antiviral activity against HBV infected in human Primary hepatocyte cells assessed as reduction in pgRNA level; assay type: functional, organism-based
Hepatitis B virus [7] = experiment: Antiviral activity against HBV infected in human HepG2-hNTCP cells assessed as reduction in HBsAg level; assay type: functional, organism-based
Hepatitis B virus [8] = experiment: Antiviral activity against HBV infected in human HepG2-hNTCP cells assessed as reduction in pgRNA level; assay type: functional, organism-based
[9] = Modulation of capsid assembly in HBV genotype C assessed as inhibition of viral replication; assay type: functional, Hepatitis B virus
[10] = Modulation of capsid assembly in HBV genotype D assessed as inhibition of DNA replication; assay type: functional, Hepatitis B virus
[11] = Modulation of capsid assembly in HBV genotype A assessed as inhibition of viral replication; assay type: functional, Hepatitis B virus
[12] = Modulation of capsid assembly in HBV genotype F assessed as inhibition of viral replication; assay type: functional, Hepatitis B virus
[13] = Modulation of capsid assembly in HBV genotype E assessed as inhibition of viral replication; assay type: functional, Hepatitis B virus
[14] = Modulation of capsid assembly in HBV genotype B assessed as inhibition of viral replication; assay type: functional, Hepatitis B virus
[15] = Modulation of capsid assembly in HBV genotype G assessed as inhibition of viral replication; assay type: functional, Hepatitis B virus
[16] = Modulation of capsid assembly in HBV genotype H assessed as inhibition of viral replication; assay type: functional, Hepatitis B virus
Hepatitis B virus [17] = experiment: Antiviral activity against drug-resistant HBV infected in human HepG2.2.15 cells; assay type: functional, organism-based
Hepatitis B virus [18] = experiment: Antiviral activity against HBV infected in human HepG2.2.15 cells; assay type: functional, organism-based
Hepatitis B virus [19] = experiment: Antiviral activity against HBV infected in human HepG2 cells assessed as reduction in cccDNA transcription level; assay type: functional, organism-based
Hepatitis B virus [20] = experiment: Antiviral activity against HBV infected in human HepDES19 cells assessed as reduction in viral DNA replication measured after 72 hrs by q-PCR assay; assay type: functional, organism-based; details: HepDES19, 72 h
Hepatitis B virus [21] = experiment: Antiviral activity against HBV infected in human HepG2.2.15 cells assessed as reduction in HBeAg at 100 ug/ml measured after 7 day by enzyme immunoassay relative to control; assay type: functional; details: HepG2.2.15, 168 h
Hepatitis B virus [22] = experiment: Antiviral activity against HBV infected in human HepG2.2.15 cells assessed as reduction in HBsAg at 100 ug/ml measured after 7 day by enzyme immunoassay relative to control; assay type: functional; details: HepG2.2.15, 168 h
Hepatitis B virus [23] = experiment: Antiviral activity against HBV infected in human HepG2.2.15 cells assessed as reduction in HBsAg measured after 7 day by enzyme immunoassay relative to control; assay type: functional, organism-based; details: HepG2.2.15, 168 h
Hepatitis B virus [24] = experiment: Antiviral activity against HBV infected in human HepDES19 cells assessed as reduction in viral rcDNA level measured after 7 days by a branched chain DNA hybridization assay; assay type: functional, organism-based; details: HepDES19, 168 h
Hepatitis B virus [25] = experiment: Antiviral activity against HBV infected in human HepG2.2.15 cells assessed as reduction in HBeAg level measured after 144 hrs by ELISA; assay type: functional, organism-based; details: HepG2.2.15, 144 h
Hepatitis B virus [26] = experiment: Antiviral activity against HBV infected in human HepG2.2.15 cells assessed as reduction in HBsAg level measured after 144 hrs by ELISA; assay type: functional, organism-based; details: HepG2.2.15, 144 h
Hepatitis B virus [27] = experiment: Antiviral activity against HBV infected in human HepG2.2.15 cells assessed as reduction in cccDNA transcription; assay type: functional, organism-based
Hepatitis B virus [28] = experiment: Antiviral activity against HBV stably transfected in human HepDES19 cells assessed as reduction in viral DNA measured after 7 days by q-PCR assay; assay type: functional, organism-based; details: HepDES19, 168 h
Hepatitis B virus [29] = experiment: Antiviral activity against HBV infected in human HepG2-NTCP12 cells assessed as reduction in viral DNA measured after 7 days by q-PCR assay; assay type: functional, organism-based; details: HepG2-NTCP12, 168 h
Hepatitis B virus [30] = experiment: Antiviral activity against HBV infected in human HepDE19 cells assessed as inhibition of viral replication; assay type: functional, organism-based
Hepatitis B virus [31] = experiment: Antiviral activity against HBV infected in human HePAD38 cells assessed as inhibition of viral replication; assay type: functional, organism-based
Hepatitis B virus [32] = experiment: Antiviral activity against HBV infected in human HepG2.2.15 cells assessed as inhibition of viral replication; assay type: functional, organism-based
Hepatitis B virus [33] = experiment: Antiviral activity against HBV infected in human HePAD38 cells assessed as reduction in cccDNA level; assay type: functional, organism-based

SMILES: C[C@H](NS(=O)(=O)c1cc(C(=O)Nc2ccc(F)c(C#N)c2)n(C)c1)C(F)(F)F [BERSACAPAVIR]
EC50 [9]: 10 nM
EC50 [10]: 17 nM
EC50 [11]: 10 nM
EC50 [12]: 10 nM
EC50 [13]: 10 nM
EC50 [14]: 10 nM
EC50 [15]: 10 nM
EC50 [16]: 10 nM

SMILES: CCOC(=O)C1=C(CN2CCOCC2)NC(c2nccs2)=N[C@H]1c1ccc(F)cc1Br
EC50 (Hepatitis B virus [17]): 10 nM
EC50 (Hepatitis B virus [18]): 1 nM

SMILES: CN[C@@H](C)C(=O)N[C@H]1CN(S(=O)(=O)c2cccc(S(=O)(=O)N3CC[C@H]4CC[C@@H](C(=O)NC(c5ccccc5)c5ccccc5)N4C(=O)[C@@H](NC(=O)[C@H](C)NC)C3)c2)CC[C@H]2CC[C@@H](C(=O)NC(c3ccccc3)c3ccccc3)N2C1=O
EC50 (Hepatitis B virus [19]): 20 nM

SMILES: O=C(/C=C/c1ccc(O)c(O)c1)O[C@@H]1[C@H](O)C[C@@](O)(C(=O)O)C[C@H]1OC(=O)/C=C/c1ccc(O)c(O)c1
inhibition at 100 µg/mL (Hepatitis B virus [21]): 81%
inhibition at 100 µg/mL (Hepatitis B virus [22]): 90%
EC50 (Hepatitis B virus [23]): 31900 nM

SMILES: COc1ccc(CO/N=C(\C)c2c(C)cc(=O)n(O)c2O)cc1
EC50 (Hepatitis B virus [20]): 260 nM
EC50 (Hepatitis B virus [24]): 400 nM

SMILES: O=C(/C=C/c1ccc(O)c(O)c1)O[C@@H]1C[C@](O)(C(=O)O)C[C@@H](OC(=O)/C=C/c2ccc(O)c(O)c2)[C@H]1O
inhibition at 100 µg/mL (Hepatitis B virus [21]): 73%
inhibition at 100 µg/mL (Hepatitis B virus [22]): 81%
EC50 (Hepatitis B virus [23]): 90500 nM

SMILES: C=C(C)[C@@H]1CC[C@]2(C(=O)OC)CC[C@]3(COC(=O)c4ccccc4)[C@H](CC[C@@H]4[C@@]5(C)CC[C@H](OC(C)=O)C(C)(C)[C@@H]5CC[C@]43C)[C@H]12
EC50 (Hepatitis B virus [25]): 8900 nM
EC50 (Hepatitis B virus [26]): 8900 nM

SMILES: O=C1OCc2c1cc1ccc3c(c1c2-c1ccc2c(c1)OCO2)OCO3 [HELIOXANTHIN]
EC50 (Hepatitis B virus [27]): 160 nM

SMILES: Cc1c(O)c2cc(Br)cnc2n(O)c1=O
EC50 (Hepatitis B virus [28]): 1500 nM
EC50 (Hepatitis B virus [29]): 78 nM

SMILES: C/C(=N\OCc1ccc(F)cc1)c1c(C)cc(=O)n(O)c1O
EC50 (Hepatitis B virus [20]): 110 nM
EC50 (Hepatitis B virus [24]): 100 nM

SMILES: CC(=O)c1cc(O)c(=O)c(O)cc1C
EC50 (Hepatitis B virus [28]): 290 nM
EC50 (Hepatitis B virus [29]): 57 nM

SMILES: C/C(=N\OCc1ccc(C)cc1)c1c(C)cc(=O)n(O)c1O
EC50 (Hepatitis B virus [20]): 460 nM

The next lines start with results.

EC50 (Hepatitis B virus [1]): 3000 nM
SMILES: Cc1nc2cc(NC(=O)c3ccc(S(=O)(=O)N(C)Cc4ccccc4)cc3)ccc2s1

EC50 (Hepatitis B virus [3]): 173 nM
EC50 (Hepatitis B virus [5]): 1840 nM
EC50 (Hepatitis B virus [7]): 1840 nM
EC50 (Hepatitis B virus [8]): 1840 nM
SMILES: O=C(NCc1cnc(C(F)(F)F)s1)c1ccc2c(c1)NC(=O)c1ccccc1S2(=O)=O [VEBICORVIR]
EC50 (Hepatitis B virus [2]): 1840 nM
EC50 (Hepatitis B virus [4]): 1840 nM
EC50 (Hepatitis B virus [6]): 1840 nM

EC50 (Hepatitis B virus [20]): 540 nM
SMILES: C/C(=N\OCc1ccccc1)c1c(C)cc(=O)n(O)c1O

EC50 (Hepatitis B virus [1]): 10000 nM
SMILES: O=C(CN(c1cc(C(F)(F)F)ccc1Cl)S(=O)(=O)c1ccccc1)NCc1ccncc1

EC50 (Hepatitis B virus [20]): 320 nM
EC50 (Hepatitis B virus [24]): 330 nM
SMILES: C/C(=N\OCc1ccccc1F)c1c(C)cc(=O)n(O)c1O

EC50 (Hepatitis B virus [20]): 500 nM
SMILES: COc1ccccc1CO/N=C(\C)c1c(C)cc(=O)n(O)c1O

EC50 (Hepatitis B virus [30]): 27 nM
EC50 (Hepatitis B virus [31]): 18 nM
EC50 (Hepatitis B virus [32]): 17 nM
SMILES: CCOC(=O)C1=C(CN2CCN3C(=O)N(CC(C)(C)C(=O)O)C[C@@H]3C2)N=C(c2nccs2)N[C@H]1c1cccc(F)c1C [LINVENCORVIR]

EC50 (Hepatitis B virus [33]): 3 nM
SMILES: Cc1c(C(=O)C(=O)NCC#N)c(C)n(C)c1C(=O)Nc1ccc(F)c(F)c1
